Tested on: HeLa cells stably expressing tfLC3
Assay: tfLC3 test (autophagy activity, GFP/RFP ratio)
Format: cell-based
Details: for Ratio with respect to DMSO (GFP/RFP value, negative control taken as 1): final concentration 10 μM, 24 hours, HeLa cells stably expressing tfLC3, negative control 0.1% DMSO = 1, lower value = autophagy activation; for autophagy activation effect (in words): tfLC3 test, GFP/RFP ratio lower than negative control
From the text: An autophagy activation effect was examined by a tfLC3 test using the compound represented by the structural formula (1) (manufactured by INDOFINE Chemical Company) and the compound represented by the structural formula (2) (manufactured by INDOFINE Chemical Company) as test samples.
The tfLC3 test is a test performed by using tfLC3, in which LC3 that is an autophagosome marker protein is tandemly tagged with fluorescent proteins mRFP (RFP: Red Fluorescent Protein) and EGFP (GFP: Green Fluorescent Protein) (Autophagy 2007; 3:452-460. (PubMed: 17534139) DOI: 10.4161/auto. 4451).
In a cell undergoing autophagy, LC3 dots increase. However, LC3 is accumulated in a cell even if degradation due to autophagy is inhibited. Therefore, an increase of the LC3 dots alone cannot be used to conclude that autophagy is enhanced. Therefore, enhancement and inhibition of autophagy can be distinguished by examining the maturation process of autophagosomes (process of fusion of autophagosomes with lysosomes, or degradation in autolysosomes after fusion).
A fluorescent signal (green) of GFP of the tfLC3 is attenuated in the environment within the lysosomes, but RFP (red) is stable in the same environment. By using this characteristic of tfLC3 that fluorescence becomes red due to quenching of GFP in the process of maturing autophagosomes into autolysosomes, a GFP/RFP ratio within a cell is analyzed in the tfLC3 test to determine whether or not a test sample added to a medium has an autophagy activation capability.
HeLa cells stably expressing tfLC3 were seeded in a 96-well plate (Perkin Elmer #6055302 Cell Carrier 96 Ultra Black 96 well, Clear Bottom, with Lid), and the HeLA cells were cultured in a growth medium [Growth medium (DMEM (Sigma D6546) supplemented with 10% FBS and 4 mM L-glutamine] in a 5% CO2 incubator for 24 hours. Then, the medium was replaced with a medium to which a test sample was added (see Table 1 for the final concentration of the test sample), followed by culturing for 24 hours.
As a negative control, cells cultured in a medium including 0.1% dimethyl sulfoxide (DMSO) were used.
The GFP/RFP value (may be referred to as a “ratio with respect to DMSO” hereinafter) measured in the cells cultured in the test sample-added medium was calculated by determining the GFP/RFP value measured in the negative control as 1.
A test sample that has a lower value for the GFP/RFP ratio than the value for the GFP/RFP ratio of the negative control can be determined as having an autophagy activation effect.

| SMILES | Ratio with respect to DMSO (GFP/RFP value, negative control taken as 1) | autophagy activation effect (in words) |
| --- | --- | --- |
| COc1ccc2c(=O)c(OC)c(-c3cc(OC)c(OC)c(OC)c3)oc2c1 [3,7-dimethoxy-2-(3,4,5-trimethoxyphenyl)-4H-chromen-4-one] | 0.848 | had the autophagy activation effect |
| COc1cc(OC)c2c(=O)cc(-c3ccc(OC)c(OC)c3)oc2c1 [2-(3,4-dimethoxyphenyl)-5,7-dimethoxy-4H-chromen-4-one] | 0.847 | had the autophagy activation effect |

— US20260294865A1, “AUTOPHAGY ACTIVATOR AND AUTOPHAGY ACTIVATION COMPOSITION” (MARUZEN PHARMACEUTICALS CO., LTD., priority 2023, published 2026)
